Six compounds from PMC6119644 (Bioorganic & medicinal chemistry letters, 2018) can be followed below.

This test concerns the target GOT1 (Homo sapiens, UniProt P17174). Description: MDH coupled GOT1 enzymatic assay. It is filed as biochemical. As to conditions: for enhancement in potency: relative to 1a, GOT1 inhibition; for GOT1 inhibition activity (in words): MDH coupled GOT1 enzymatic assay.

Each structure is given as a SMILES string.

Sequence of GOT1 (P17174 whole entry): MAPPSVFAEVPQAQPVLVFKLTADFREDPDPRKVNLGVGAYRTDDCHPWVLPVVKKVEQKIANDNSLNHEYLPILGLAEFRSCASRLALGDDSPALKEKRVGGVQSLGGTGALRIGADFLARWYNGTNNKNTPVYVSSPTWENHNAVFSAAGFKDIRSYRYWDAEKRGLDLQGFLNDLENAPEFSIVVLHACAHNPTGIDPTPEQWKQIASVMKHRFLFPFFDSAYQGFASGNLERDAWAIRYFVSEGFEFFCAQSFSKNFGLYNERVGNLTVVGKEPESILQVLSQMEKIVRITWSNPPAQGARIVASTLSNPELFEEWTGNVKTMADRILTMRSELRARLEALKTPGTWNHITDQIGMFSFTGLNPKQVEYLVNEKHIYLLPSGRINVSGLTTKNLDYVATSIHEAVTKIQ

In the case of `O=C(Nc1cccc(C(F)(F)F)c1)N1CCN(c2cccc3[nH]ccc23)CC1` [Compound 2g], the enhancement in potency is ~ 10 fold.

On to `O=C(Nc1ccc(Cl)cc1)N1CCN(c2cccc3[nH]ccc23)CC1` [Compound 2c], for which the enhancement in potency is ~ 10 fold.

As for `O=C(Nc1ccccc1)N1CCN(c2cccc3ncccc23)CC1` [Compound 1k], the “GOT1 inhibition activity (in words)” value was “lack of observed activity”.

Consider `O=C(NCCc1c[nH]c2ccccc12)Nc1ccccc1` [Compound 3a], for which the “GOT1 inhibition activity (in words)” value was “no significant activity”.

`O=C(Nc1ccc(C(F)(F)F)cc1)N1CCN(c2cccc3[nH]ccc23)CC1` [Compound 2d]: the enhancement in potency is ~ 10 fold.

`O=C(Nc1ccccc1)N1CCN(c2cccc3[nH]ncc23)CC1` [Compound 1j]: the “GOT1 inhibition activity (in words)” value was “lack of observed activity”.
